Laboratory results: the supplement of paper PMC10307832

What was measured:
Test in all cases: relative viability (nuclei count vs DMSO), 5 days (fraction); higher = more cells survive
Wnt-C59 + Luminespib = compound: CC1=NC=CC(=C1)C2=CC=C(C=C2)CC(=O)NC3=CC=C(C=C3)C4=CN=CC=C4 [Wnt-C59] + CCNC(=O)c1noc(-c2cc(C(C)C)c(O)cc2O)c1-c1ccc(CN2CCOCC2)cc1 [Luminespib] (partner 0.01 µM)
In short: (§1)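 Lung cancer cell lines were pin-tool dosed in 1536-well plates on the day after seeding, with either a lone drug or a fixed anchor-drug dose plus five library-drug doses (not always all listed) in √10 steps. Nuclei were counted on 4× images after 5 days. Relative viability is the ratio of treated-well to vehicle-well nuclei counts, with each value a median of duplicate plates.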

Lapatinib + Vorinostat = compound: CS(=O)(=O)CCNCc1ccc(-c2ccc3ncnc(Nc4ccc(OCc5cccc(F)c5)c(Cl)c4)c3c2)o1 [Lapatinib] + O=C(CCCCCCC(=O)Nc1ccccc1)NO [Vorinostat] (partner 1 µM)
In short: as §1

Lapatinib + Luminespib = compound: CS(=O)(=O)CCNCc1ccc(-c2ccc3ncnc(Nc4ccc(OCc5cccc(F)c5)c(Cl)c4)c3c2)o1 [Lapatinib] + CCNC(=O)c1noc(-c2cc(C(C)C)c(O)cc2O)c1-c1ccc(CN2CCOCC2)cc1 [Luminespib] (partner 0.01 µM)
In short: as §1

Lapatinib + Phenformin = compound: CS(=O)(=O)CCNCc1ccc(-c2ccc3ncnc(Nc4ccc(OCc5cccc(F)c5)c(Cl)c4)c3c2)o1 [Lapatinib] + N=C(N)NC(=N)NCCc1ccccc1 [Phenformin] (partner 250 µM)
In short: as §1

| Cell Line | relative viability (Wnt-C59 + Luminespib; first compound 0.001 µM) | relative viability (Wnt-C59 + Luminespib; first compound 0.01 µM) | relative viability (Wnt-C59 + Luminespib; first compound 0.03162 µM) | relative viability (Wnt-C59 + Luminespib; first compound 0.1 µM) | relative viability (Lapatinib + Vorinostat; first compound 0.02 µM) | relative viability (Lapatinib + Vorinostat; first compound 0.06325 µM) | relative viability (Lapatinib + Vorinostat; first compound 0.2 µM) | relative viability (Lapatinib + Vorinostat; first compound 0.6325 µM) | relative viability (Lapatinib + Vorinostat; first compound 2 µM) | relative viability (Lapatinib + Luminespib; first compound 0.02 µM) | relative viability (Lapatinib + Luminespib; first compound 0.06325 µM) | relative viability (Lapatinib + Luminespib; first compound 0.2 µM) | relative viability (Lapatinib + Luminespib; first compound 0.6325 µM) | relative viability (Lapatinib + Luminespib; first compound 2 µM) | relative viability (Lapatinib + Phenformin; first compound 0.02 µM) | relative viability (Lapatinib + Phenformin; first compound 0.06325 µM) | relative viability (Lapatinib + Phenformin; first compound 0.2 µM) | relative viability (Lapatinib + Phenformin; first compound 0.6325 µM) | relative viability (Lapatinib + Phenformin; first compound 2 µM) |
| --- | --- | --- | --- | --- | --- | --- | --- | --- | --- | --- | --- | --- | --- | --- | --- | --- | --- | --- | --- |
| SK-MES-1 | 0.88 | 0.792 | 0.78 | 0.739 | 0.967 | 0.98 | 1.15 | 1.18 | 0.369 | 0.738 | 0.665 | 0.625 | 0.482 | 0.326 | 0.62 | 0.684 | 0.684 | 0.563 | 0.306 |
| NCI-H2085 | 0.457 | 0.502 | 0.419 | 0.494 | 0.666 | 0.716 | 0.795 | 0.741 | 0.587 |  | 0.402 | 0.396 | 0.447 | 0.322 |  | 0.64 | 0.735 | 0.61 | 0.458 |
| EKVX | 0.952 | 0.824 | 0.857 | 0.704 |  | 0.476 | 0.48 | 0.426 | 0.26 | 0.712 | 0.804 | 0.767 | 0.853 | 0.447 | 0.185 | 0.218 | 0.242 | 0.235 | 0.146 |
| HCC-366 |  |  |  |  |  | 0.275 | 0.391 | 0.352 | 0.202 |  |  |  |  |  |  | 0.642 | 0.633 | 0.594 | 0.559 |
| A549 |  |  |  |  |  |  |  |  |  |  |  |  |  |  |  |  | 0.192 | 0.137 | 0.112 |
| NCI-H1563 | 0.498 | 0.539 | 0.565 | 0.528 |  |  |  |  |  | 0.538 | 0.509 | 0.537 | 0.461 | 0.474 | 0.626 | 0.645 | 0.69 | 0.76 | 0.688 |
| IA-LM |  |  |  |  |  | 0.795 |  | 0.916 | 0.885 |  |  |  |  |  |  |  |  |  |  |
| NCI-H1648 |  |  |  |  |  | 0.271 | 0.389 | 0.587 | 0.287 |  |  |  |  |  |  |  |  |  |  |
